Source: patent publication EP0804408B1, “NOVEL 4-SUBSTITUTED 2,6-DI-TERT-BUTYLPHENOL COMPOUNDS, PHARMACEUTICAL COMPOSITIONS CONTAINING SAME AND PREPARATION METHOD THEREFOR” (priority 1994, dated 1996)
Marks after values point to notes of the source that are not given here.

Tested on: NO-synthase inductible (iNOS)
Test: iNOS induction test: nitrites in RAW264.7 supernatants by Griess reaction after nitrate reduction
Type: cell-based, murins
Source text: Cette hypothèse a été contrôlée en dosant les nitrites dans des surnageants de culture de macrophages murins de lignées activées en présence de AVF1. Les nitrites ont été dosés par la réaction de Griess après réduction de tous le nitrates grâce à la nitrate réductase de Pseudomonas oleoverans (Granger et al., J. Immunol., 1991, 146, 1294-1302). La spécificité de la réaction a été prouvée par l'emploi d'un inhibiteur spécifique de la synthèse du monoxyde d'azote, la N^G-monométhyl-L-arginine (L-NMMA).
Le test d'induction iNOS consiste à ensemencer les macrophages RAW264.7 dans des plaques à 24 puits à raison de 1 x 10^6 sous 1,6 ml. Après 24 heures de culture permettant d'obtenir un tapis cellulaire complet, AVF1, dilué de raison 10 dans des des doses ne donnant pas de toxicité cellulaire (de 10^-6 à 10^-8 %), est ajouté dans 100 µl par cupule soit sur des macrophages sans activateur, avec ou sans l'inhibiteur de iNOS (action directe du produit sur les macrophages) soit en présence des inducteurs, avec ou sans inhibiteur (action du produit sur des macrophages activés).
Après 24 heures de culture, les surnageants sont prélevés, centrifugés 10 minutes à 100 g à température ambiantes pour éliminer les éventuels débris cellulaires puis utilisés pour le dosage des nitrites.
Deux volumes des surnageants clarifiés sont réduits en présence d'un volume d'une suspension de Pseudomonas oleovorans à 100 mg/ml et un volume de D-MEM sans rouge de phénol. Après une incubation de 90 minutes à 37°C sans agitation, les mélanges sont centrifugés 5 minutes à 4 000 g pour éliminer les bactéries et dilués au 1/5 et au 1/10 en eau distillée stérile.
100 µl des échantillons réduits et dilués sont distribués dans des séries de 2 puits dans une plaque ELISA (maxicorp, Nunc.). 200 µl du réactif de Griess (mélange ex-temporané volume à volume des solutions de sulfamide à 1,5 g/100 ml de HCl 1,2 N (87,1 mM) - réactif A - et de naphtylènediamine à 0,15 g/100 ml d'eau stérile (5,78 mM) - réactif B -) sont ajoutés.
Cent autres µl d'échantillon servant de blanc de DO sont distribués et mélangés à 200 µl d'un mélange ex-temporané volume à volume d'eau distillée et du réactif colorimétrique A.
Après 30 minutes à température ambiante à l'obscurité, la densité optique (DO) des échantillons est lue à 540 nm au lecteur de plaque pour ELISA.
• Les contrôles du système d'induction iNOS sont composés de : • . Témoin cellules consistant en des macrophages ne recevant que du milieu de culture. • . Témoin d'induction consistant en des macrophages traités par 100 µl de lipopolysaccharide (LPS à 4 µg/ml, Difco) et par 100 µl d'interféron-γ recombinant (IFN-γ à 1 µU/ml, Boerhinger-Mannheim) afin d'activer la iNOS (Schmidt et al., Mol. Pharmacol., 1992, 41, 614-624). Les solutions mères de LPS et de IFN-γont été conservées respectivement à +4°C et à -20°C avant utilisation. • . Témoin d'inhibition spécifique pour prouver que les nitrites dosés proviennent de l'activation de la iNOS. Il consiste à incorporer à la culture un inhibiteur spécifique, la L-NMMA (N^G-monométhyl-L-arginine, Calbiochem) (Hibbs et al., Science, 1987, 235, 473-476) à des concentrations de raison 10 allant de 3 à 300 µM. Cette solution a été conservée sous parties aliquotes à -20°C avant utilisation. • Les contrôles de la réaction de Greiss sont composés de : • . Une solution de nitrate de sodium qui permet de contrôler l'activité nitrate-réductase des bactéries. • . Une gamme étalon de nitrite de sodium qui permet de doser les nitrites dans les échantillons. • Le blanc de DO de la gamme étalon contenant 100 µl d'eau distillée et 200 µl du mélange des réactifs A et B.

[1] = AVF1 1 x 10^-6 % (10 nM), IFNγ + LPS + L-NMMA (3 µM)
[2] = AVF1 1 x 10^-6 % (10 nM), IFNγ + LPS + L-NMMA (30 µM)
[3] = AVF1 1 x 10^-6 % (10 nM), IFNγ + LPS + L-NMMA (300 µM)
[4] = AVF1 1 x 10^-7 % (1 nM), IFNγ + LPS + L-NMMA (30 µM)
[5] = AVF1 1 x 10^-7 % (1 nM), IFNγ + LPS + L-NMMA (300 µM)
[6] = AVF1 1 x 10^-8 % (0,1 nM), IFNγ + LPS + L-NMMA (3 µM)
[7] = AVF1 1 x 10^-8 % (0,1 nM), IFNγ + LPS + L-NMMA (300 µM)

CC(C)(C)c1cc(C(=O)OCCOCCOCCOCCOCCOCCOCCOCCO)cc(C(C)(C)C)c1O [AVF1, 3,5-di-t-butyl-4-hydroxybenzoate d'octaoxyéthylèneglycol]
Concentration moyenne en nitrites en µM sur 2 échantillons (AVF1 1 x 10^-6 % (10 nM), IFNγ + LPS): 20,9 µM
Concentration moyenne en nitrites en µM sur 2 échantillons [1]: 5,3 µM
Pourcentage d'inhibition de la production de nitrite [1]: 74%
Concentration moyenne en nitrites en µM sur 2 échantillons [2]: 6,3 µM
Pourcentage d'inhibition de la production de nitrite [2]: 70%
Concentration moyenne en nitrites en µM sur 2 échantillons [3]: 4,8 µM
Pourcentage d'inhibition de la production de nitrite [3]: 77%
Concentration moyenne en nitrites en µM sur 2 échantillons (AVF1 1 x 10^-6 % (10 nM), cells: Milieu (no activator)): 5,0* µM
Concentration moyenne en nitrites en µM sur 2 échantillons (AVF1 1 x 10^-7 % (1 nM), IFNγ + LPS): 19,5 µM
Concentration moyenne en nitrites en µM sur 2 échantillons (AVF1 1 x 10^-7 % (1 nM), IFNγ + LPS + L-NMMA (3 µM)): 5,1 µM
Concentration moyenne en nitrites en µM sur 2 échantillons [4]: 4,9 µM
Pourcentage d'inhibition de la production de nitrite [4]: 76%
Concentration moyenne en nitrites en µM sur 2 échantillons [5]: 5,8 µM
Pourcentage d'inhibition de la production de nitrite [5]: 72%
Concentration moyenne en nitrites en µM sur 2 échantillons (AVF1 1 x 10^-7 % (1 nM), cells: Milieu (no activator)): 4,8* µM
Concentration moyenne en nitrites en µM sur 2 échantillons (AVF1 1 x 10^-8 % (0,1 nM), IFNγ + LPS): 21,6 µM
Concentration moyenne en nitrites en µM sur 2 échantillons [6]: 5,0 µM
Pourcentage d'inhibition de la production de nitrite [6]: 76%
Concentration moyenne en nitrites en µM sur 2 échantillons (AVF1 1 x 10^-8 % (0,1 nM), IFNγ + LPS + L-NMMA (30 µM)): 5,2 µM
Concentration moyenne en nitrites en µM sur 2 échantillons [7]: 5,5 µM
Pourcentage d'inhibition de la production de nitrite [7]: 74%
Concentration moyenne en nitrites en µM sur 2 échantillons (AVF1 1 x 10^-8 % (0,1 nM), cells: Milieu (no activator)): 5,6* µM
induction de monoxyde d'azote (NO) dans les macrophages (AVF1 from 10^-6 % downwards, non-activated macrophages, nitrites in supernatants): n'induit pas de monoxyde d'azote (NO)
inhibition at 0.01 µM (Mus musculus, RAW264.7, AVF1 1 x 10^-6 % (10 nM), IFNγ + LPS, read-out: Pourcentage d'inhibition de la production de nitrite): 0%
inhibition at 0.001 µM (Mus musculus, RAW264.7, AVF1 1 x 10^-7 % (1 nM), IFNγ + LPS, read-out: Pourcentage d'inhibition de la production de nitrite): 6%
action sur le niveau de production de NO (macrophages activated by LPS + IFN-γ): n'a aucune action sur le niveau de production
